Experimental findings from US20060223814A1, “Nk-2 antagonist basic linear compounds and formulations containing them” (priority 2003, published 2006) are described below.

The target in the assay is T1, human NK-2 receptor (Homo sapiens, UniProt P21452).
T1 construct: expressed in transfected cells; host or cells: Chinese hamster ovary (CHO) cells, membranes
T1 sequence (P21452 1-398): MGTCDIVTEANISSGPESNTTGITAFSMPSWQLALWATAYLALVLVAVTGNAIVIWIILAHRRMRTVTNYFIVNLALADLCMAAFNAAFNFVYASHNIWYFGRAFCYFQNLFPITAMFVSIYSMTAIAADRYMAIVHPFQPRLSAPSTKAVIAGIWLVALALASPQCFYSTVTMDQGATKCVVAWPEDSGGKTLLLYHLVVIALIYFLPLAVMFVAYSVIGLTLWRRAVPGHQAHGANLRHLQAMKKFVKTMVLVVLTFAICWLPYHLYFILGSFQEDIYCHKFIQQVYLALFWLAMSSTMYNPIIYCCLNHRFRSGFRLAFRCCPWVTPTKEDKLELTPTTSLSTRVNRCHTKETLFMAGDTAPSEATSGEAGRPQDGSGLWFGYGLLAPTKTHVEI
Briefly: Binding test on membranes of CHO cells transfected with the human ileum NK-2 receptor, radioligand NKA in competition. To be noted: CHO cell membranes, radioligand NKA 100 pM, incubation 30 min., 20° C.; for Ki: read-out: pKi (affinity to the human NK-2 receptor) (converted). The method, then:
Assessment of the antagonist activity on NK-2 receptors was performed with binding and functional tests according to prior descriptions in the literature for NK-2 antagonists.
In particular, affinity of the compounds for the human NK-2 receptor was assessed in a binding test using membranes of Chinese hamster ovary (CHO) cells, transfected with the NK-2 receptor of human ileum and the radioligand ['251]NKA (Amersham, aspecific activity 2000 Ci/mmol) at a concentration of 100 pM in competition studies. The substances under examination were tested in a concentration range from 0.01 nM to 10 mM. At the end of incubation (30 min., 20° C.) the samples were filtered and the radioactivity was determined using a gamma-counter.
The data in table 1 were obtained for some compounds of general formula (I) and concern the values of affinity to the human NK-2 receptor: […]

Turning to `CN(C)CCCNC(=O)C=C[C@@H](Cc1ccccc1)NC(=O)C1(NC(=O)c2cc3ccccc3s2)CCCC1` [Example 46, (R) Benzo[b]thiophene-2-carboxylic acid {1-[1-benzyl-3-(3-dimethylamino-propylcarbamoyl)-allylcarbamoyl]-cyclopentyl)-amide], the Ki was 0.631 nM. On the same count and under the same terms, to `O=C(NC1(C(=O)N[C@@H](CCCN2CCC(Cc3ccccc3)CC2)Cc2ccccc2)CCCC1)c1cc2ccccc2s1` [Example 50, (S) Benzo[b]thiophene-2-carboxylic acid {1-[1-benzyl-4-(4-benzyl-piperidin-1-yl)-butylcarbamoyl]-cyclopentyl}-amide] belongs 0.126 nM; to `Cc1ccc2cc(C(=O)NC3(C(=O)N[C@@H](CCC(=O)N4CCN(CC5CCOCC5)CC4)Cc4ccccc4)CCCC3)sc2c1` [Example 51], 0.0794 nM.

`Cc1ccc2cc(C(=O)NC3(C(=O)N[C@@H](CCC(=O)N4CCN(C5CCOCC5)CC4)Cc4ccccc4)CCCC3)sc2c1` [Example 52, (S) 6-Methyl-benzo[b]thiophene-2-carboxylic acid (1-{1-benzyl-4-oxo-4-[4-(tetrahydro-pyran-4-yl)-piperazin-1-yl]-butylcarbamoyl}-cyclopentyl)amide]: the Ki was 0.0794 nM. With `Cc1ccc2cc(C(=O)NC3(C(=O)N[C@@H](CCCN4CCN(CC5CCOCC5)CC4)Cc4ccccc4)CCCC3)sc2c1` [Example 54, (S) 6-Methyl-benzo[b]thiophene-2-carboxylic acid (1-{1-benzyl-4-[4-(tetrahydro-pyran-4-ylmethyl)-piperazin-1-yl]-butylcarbamoyl}-cyclopentyl)-amide], the Ki was 0.0501 nM.

Consider `Cc1ccc2cc(C(=O)NC3(C(=O)N[C@@H](CCCN4CCN(C(=O)C5CCOCC5)CC4)Cc4ccccc4)CCCC3)sc2c1` [Example 55, (S) 6-Methyl-benzo[b]thiophene-2-carboxylic acid (1-{1-benzyl-4-[4-(tetrahydro-pyran-4-carbonyl)-piperazin-1-yl]-butylcarbamoyl}-cyclopentyl)-amide], for which the Ki is 0.1 nM. On the same count and under the same terms, next, `Cc1ccc2cc(C(=O)NC3(C(=O)N[C@@H](CCCC4CCN(CC5CCOCC5)CC4)Cc4ccccc4)CCCC3)sc2c1` [Example 58, (S) 6-Methyl-benzo[b]thiophene-2-carboxylic acid (1-{1-benzyl-4-[1-(tetrahydro-pyran-4-ylmethyl)-piperidin-4-yl]-butylcarbamoyl}-cyclopentyl)-amide]: 0.126 nM. For the compound `Cc1ccc2cc(C(=O)NC3(C(=O)N[C@@H](COCCC4CCN(CC5CCOCC5)CC4)Cc4ccccc4)CCCC3)sc2c1` [Example 62], the Ki was 0.501 nM. With “(S) 6-Methyl-benzo[b]thiophene-2-carboxylic acid (1-{1-benzyl-4-[4-(2-hydroxy-ethyl)-piperidin-1-yl]-4-oxo-butylcarbamoyl)-cyclopentyl)-amide [Example 53]”, the “pKi (affinity to the human NK-2 receptor)” value turned out to be 8.7.
